Entries after “also recorded” stand apart in the source; their conditions may differ.

Assay [1] concerns EGFP. The assay is described as follows: Effectiveness versus bis-Bhc-CH3 and Bhc-diazo, EGFP/DsRed cotransfection in Hela cells (Example 7). It counts as cell-based. The procedure: As shown in the following Table 5, 0.2 μl of the crosslinking agent solution and 0.20 μl of the siRNA solution were mixed together, and the mixture thus obtained was still held for 8 hours under light shielding conditions. Subsequently, Nos. 2, 4, and 6 were irradiated with UV (350 nm) for 3 minutes using Rayonet Photochemical Reactor manufactured by Southern N. E. Ultraviolet Co.

Assay [2] has as its system EGFP. Put plainly: RNAi-effect inhibitory ability, EGFP/DsRed cotransfection in Hela cells (Example 5). Type of assay: cell-based. The conditions noted are these: crosslinking agent solution 4 μM reacted with siRNA 8 hours, no UV irradiation, 48 hours culture. The procedure: (1) Reagents • Hela cells (American Type Culture Collection (ATCC, Rockville, Md.)) • DMEM culture medium (Dullbecco's modified Eagle culture medium, Nissui 2, manufactured by Nissui Pharmaceutical Co., Ltd.) • Opti-MEM culture medium (manufactured by GIBCO) • Trypsin solution (0.38 mg/ml EDTA aqueous solution containing 2.5 mg of trypsin, manufactured by GIBCO) • LipofectAMINE 2000 (manufactured by Invitrogen) • pEGFP-N1 vector solution
Hela cells (500 μl of the DMEM culture medium containing Hela cells and 10% of FBS) were spread on a 24-hole plate so as to obtain 3×10^4 cells/well. After 24 hours passed, the old culture medium was removed, and Hela cells were then washed with a PBS(−) solution. Subsequently, the PBS(−) solution was removed, and 500 μl of the DMEM culture medium containing 10% of FBS was added per one well. This was used as a transfection Hela cell plate.
As shown in the following Table 2, 0.2 μl of the crosslinking agent solution and 0.20 μl of the siRNA solution were mixed together, and the mixture thus obtained was still held for 8 hours under light shielding conditions. Subsequently, Nos. 2, 4, and 6 were irradiated with UV (350 nm) for 3 minutes using Rayonet Photochemical Reactor manufactured by Southern N. E. Ultraviolet Co. […]

The subject of assay [3] is EGFP. Put plainly: Study in cell: local UV irradiation of transfected Hela cells, EGFP/DsRed (Example 8). Type of assay: cell-based. The procedure:
Hela cells (500 μl of DMEM containing Hela cells and 10% of FBS) were spread on a 24-hole plate so as to obtain 5×10^3 cells/well. After 24 hours passed, the old culture medium was removed, and Hela cells were washed with a PBS(−) solution. Subsequently, the PBS(−) solution was removed, and 500 μl of DMEM containing 10% of FBS was added per one well. This was used as a transfection Hela cell plate.
(§1) To 9.2 μl of the Opti-MEM culture medium, 0.8 μl of LipofectAMINE 2000 was added, and the culture medium thus processed was still held for 10 minutes.
Next, the above culture medium and the transfecting sample obtained by the above ii) were mixed together, and this mixture was still held for 20 minutes.
(§2) The mixture thus obtained was added to the transfection Hela cell plate prepared by the above (2) and was then cultured at 37° C. for 6 hours using a CO2 incubator (Automatic CO2 Incubators 5400, manufactured by NAPCO).
(§3) After the culture was performed, the culture medium was removed, and Hela cells were washed with a PBS(−) solution. Subsequently, the PBS(−) solution was removed, and 500 μl of the Opti-MEM culture medium was added per one well. […]
In addition, the observation results of the fluorescence images of EGFP and DsRed obtained by using the compound 3 of the present invention are shown in FIG. 6.

For assay [4], the system named is EGFP. Put plainly: Influence of light irradiation and compound on RNAi, control siRNA (targeting luciferase), EGFP/DsRed in Hela cells (Example 9). Type of assay: cell-based. The method, then: The expression level obtained by transfection of siRNA which reacted with the compound of the present invention was low as that obtained by transfection of only EGFP. In order to investigate this reason, it was confirmed whether the transfection efficiency was degraded by the compound of the present invention or by the transfection itself of siRNA.
As shown in the following Table 8, 0.2 μl of the crosslinking agent solution and 0.20 μl of the siRNA solution or 0.20 μl of the control siRNA solution were mixed together, and the mixture thus obtained was still held for 8 hours under light shielding conditions.
as §1
Next, the above culture medium and the transfecting sample obtained by the above ii) or the control sample were mixed together, and this mixture was still held for 20 minutes.
as §2, §3

The next assay deals with Lamin B1. Put plainly: Light irradiation control of endogenous gene, Western blotting of Lamin B1 protein in Hela cells (Example 10). Type of assay: cell-based. The procedure:
(1) Reagents • Hela cells (American Type Culture Collection (ATCC, Rockville, Md.) • DMEM culture medium (Dullbecco's modified Eagle culture medium, Nissui 2, manufactured by Nissui Pharmaceutical Co., Ltd.) • Opti-MEM culture medium (manufactured by GIBCO) • Trypsin solution (0.38 mg/ml EDTA aqueous solution containing 2.5 mg of trypsin, manufactured by GIBCO) • LipofectAMINE 2000 (manufactured by Invitrogen) • siRNA solution
Hela cells (500 μl of DMEM containing Hela cells and 10% of FBS) were spread on a 24-hole plate so as to obtain 1×10^3 cells/well. After 24 hours passed, the old culture medium was removed, and Hela cells were then washed with a PBS(−) solution. Subsequently, the PBS(−) solution was removed, and 500 μl of DMEM containing 10% of FBS was added per one well. This was used as a transfection Hela cell plate.
Mixing between 4.6 μl of the crosslinking agent solution and 0.46 μl of the siRNA solution was performed, and the mixture thus obtained was still held for 8 hours under light shielding conditions.
After the culture was performed, by a Western blotting method, the amounts of a Lamin B1 protein of the individual samples were quantitatively measured. […]
In addition, from the results of the Western blotting, the amounts of the Lamin B1 protein of the samples were quantitatively measured. […]
For orientation: Immunoblotting shows a protein as a band on a membrane.

The test system of assay [5] is EGFP. The settings on record: compound 3 4 μM.
Method: The crosslinking agent solution in an amount of 0.2 μl and the siRNA solution in an amount of 0.20 μl were mixed together, and the mixture thus formed was still held for 0, 1, 2, 4, 8, or 24 hours under light shielding conditions.
After the culture was performed, transmission images of cells, and fluorescent images of EGFP and DsRed were observed.
By using a Meta Morph Analysis software (manufactured by Meta Imaging Software), the total fluorescent areas of the respective EGFP and DsRed were measured, and the ratio of EGFP/DsRed was obtained.
The mark [6] stands for this setting: Hela cells, regardless before and after UV irradiation, bis-Bhc-CH3 4 μM, Bhc-diazo 8 μM.

Take `[N-]=[N+]=Cc1cc(=O)oc2cc(O)c(Br)cc12` [Bhc-diazo, 6-bromo-7-hydroxy-4-methyldiazocumarine]: the “binding to / crosslinking of siRNA” value with EGFP [1] is listed as “could not crosslink two chains of siRNA”. Also, the “inhibition of the siRNA effect (relative EGFP expression level)” value in the assay on EGFP [1] (setting [6]) was “the siRNA effect could be hardlyinhibited”.
Taken in the same sequence, the figures for `Cc1cc(=O)oc2cc(OC(=O)CC(C)(C)CC(=O)OCCOC(=O)CC(C)(C)CC(=O)Oc3cc4oc(=O)cc(C)c4cc3Br)c(Br)cc12` [bis-Bhc-CH3, 3,3-dimethylglutaric acid (6-bromo-4-methyl-2-oxo-2H-chromen)-7-yl 2-[4-(6-bromo-4-methyl-2-oxo-2H-chromen-7-yloxycarbonyl)-3,3-dimethylbutyryloxy]ethyl ester] were “could not be bound to siRNA” and “the siRNA effect could be hardlyinhibited”.
Consider `[N-]=[N+]=Cc1cc(=O)oc2cc(OC(=O)CCCC(=O)OCCOC(=O)CCCC(=O)Oc3cc4oc(=O)cc(C=[N+]=[N-])c4cc3Br)c(Br)cc12` [compound 2 of the present invention, Glutaric acid (6-bromo-4-diazomethyl-2-oxo-2H-chromen)-7-yl 2-[4-(6-bromo-4-diazomethyl-2-oxo-2H-chromen-7-yloxycarbonyl)butyryloxy]ethyl ester], for which the “inhibition of the RNAi effect of siRNA (relative EGFP expression level)” value in the assay with EGFP [2] is listed as “superior effect of inhibiting the RNAi effect”.
Consider `CC(C)(CC(=O)OCCOC(=O)CC(C)(C)CC(=O)Oc1cc2oc(=O)cc(C=[N+]=[N-])c2cc1Br)CC(=O)Oc1cc2oc(=O)cc(C=[N+]=[N-])c2cc1Br` [compound 3 of the present invention, 3,3-dimethylglutaric acid (6-bromo-4-diazomethyl-2-oxo-2H-chromen)-7-yl 2-[4-(6-bromo-4-diazomethyl-2-oxo-2H-chromen-7-yloxycarbonyl)-3,3-dimethylbutyryloxy]ethyl ester], for which the “inhibition of the RNAi effect of siRNA (relative EGFP expression level)” value in the assay on EGFP [2] was “superior effect of inhibiting the RNAi effect; also recorded: most superior effect”. Further, the “inhibition of the siRNA effect (relative EGFP expression level)” value with EGFP [1] (Hela cells, 4 μM, UV irradiation not performed) is “could inhibit the siRNA effect”. Further, in the assay with EGFP [1] (Hela cells, UV (350 nm) for 3 minutes), the “effect of UV irradiation on the inhibition of the siRNA effect” value was “the inhibition was broken down by UV irradiation”. The “RNAi effect of siRNA at a portion not irradiated with UV” value in the assay on EGFP [3] (Hela cells transfected with siRNA crosslinked by compound 3) is “the RNAi effect of siRNA was inhibited”. For the same molecule, in the assay on EGFP [3] (Hela cells, UV (335 to 385 nm) for 1 second at the center of the well, 42 hours culture), the “RNAi effect of siRNA at a portion irradiated with UV” value is listed as “the RNAi effect of siRNA was restored”. Besides, the “EGFP expression rate with control siRNA crosslinked by the compound versus control siRNA only” value with EGFP [4] is reported as “approximately equivalent to each other”. The “restoration of the inhibited RNAi effect on Lamin B1 expression by UV irradiation” value with Lamin B1 (UV irradiation as in Example 8) is recorded as “could be restored”. Also, the “inhibition of the RNAi effect of siRNA on Lamin B1 expression” value in the assay on Lamin B1 (compound 3 bound to siRNA, no UV) is reported as “the RNAi effect of siRNA could be inhibited”. The “crosslinking of siRNA when the reaction time is short” value in the assay with EGFP [5] (reaction time short (0, 1, 2, 4 hours tested)) is “could not be sufficiently crosslinked”. Moreover, the “reaction time at which the reaction between crosslinking agent and siRNA reached a plateau” value with EGFP [5] (reaction times 0-24 hours, no significant difference between 8 and 24 hours) is reported as “approximately 8 hours”.

Values taken from US8084625B2, “Crosslinking agent, crosslinking method, method of controlling gene expression, and method of examining gene function” (Wako Pure Chemical Industries, Ltd., priority 2005, dated 2011).
